pIC50: −log10 of the molar value. In brackets after ≈: the same amount, converted by molar mass. Where two headings read alike, the source gives them in different places.
Legend:
[1] = Solubility; format: physicochemical
[2] = target: PDE5 (Homo sapiens, UniProt O76074); test: PDE-5 human inhibition; format: biochemical
[3] = Non-Spec Binding; format: in vitro ADME
[4] = T1/2 in human liver microsomes; format: in vitro ADME
[5] = Protein Binding; format: in vitro ADME; details: human, human serum components
Description: In general, protein binding is assessed by measuring the capacity of molecules of the invention to bind to one or more human serum components or mimics thereof. In one embodiment, suitable functional residues may be identified by screening of surfaces comprising such residues for their ability to resist adsorption of serum components, including, but not limited to serum proteins, and preferably human serum proteins. Candidate residues can be screened directly by attaching them to a solid support and testing the support for protein resistance. Alternatively, candidate residues are incorporated into, or linked to molecules of pharmaceutical interest. Such compounds may be synthesized on a solid support, or bound to a solid support after synthesis. In a non-limiting example of a direct binding assay, immobilized candidate functional residues or molecules incorporating such residues are tested for their ability to bind serum components. The serum components can be labeled with a signaling moiety for detection, or a labeled secondary reagent that binds to such serum components can be used.
A direct binding analysis can also be preformed in liquid phase. For example, test compounds can be mixed with one or more serum components in liquid phase, and the unbound molecules determined.

[6] = test system: PDE-4 human; test: PDE-4 human inhibition; format: biochemical
[7] = test system: PDE-3; test: PDE-3 inhibition; format: biochemical
[8] = Caco-2 permeability; format: in vitro ADME; details: human; for Papp A→B: AtoB; for Papp B→A: BtoA
Source text: Several model systems are available, employing monolayers of various cell types, for evaluation of active transport of pharmaceutically active substances. For example, monolayers of Caco-2 intestinal epithelial cells can be used to evaluate active transport of substances between the intestine and the bloodstream. When plated on a surface which allows the flow of material from apical to basolateral and vice versa, such cells form a biological membrane which can be used to simulate physiological absorption and bioavailability. In another example, mouse brain capillary endothelial cell (MBEC) lines have been established to evaluate active transport in and out of the central nervous system. Another example of such cells is HT29 human colon carcinoma cells. Further, monolayers expressing particular transporter proteins can be established using transfected cells. For example, Sasaki et al (2002) J. Biol. Chem. 8:6497 used a double-transfected Madin-Darby canine kidney cell monolayer to study transport of organic anions.

[9] = target: T1, PDE-6 bovine (Bos taurus, UniProt P11541+P23439); test: PDE-6 bovine inhibition; format: biochemical
T1 sequence (P11541 2-856 limits assumed): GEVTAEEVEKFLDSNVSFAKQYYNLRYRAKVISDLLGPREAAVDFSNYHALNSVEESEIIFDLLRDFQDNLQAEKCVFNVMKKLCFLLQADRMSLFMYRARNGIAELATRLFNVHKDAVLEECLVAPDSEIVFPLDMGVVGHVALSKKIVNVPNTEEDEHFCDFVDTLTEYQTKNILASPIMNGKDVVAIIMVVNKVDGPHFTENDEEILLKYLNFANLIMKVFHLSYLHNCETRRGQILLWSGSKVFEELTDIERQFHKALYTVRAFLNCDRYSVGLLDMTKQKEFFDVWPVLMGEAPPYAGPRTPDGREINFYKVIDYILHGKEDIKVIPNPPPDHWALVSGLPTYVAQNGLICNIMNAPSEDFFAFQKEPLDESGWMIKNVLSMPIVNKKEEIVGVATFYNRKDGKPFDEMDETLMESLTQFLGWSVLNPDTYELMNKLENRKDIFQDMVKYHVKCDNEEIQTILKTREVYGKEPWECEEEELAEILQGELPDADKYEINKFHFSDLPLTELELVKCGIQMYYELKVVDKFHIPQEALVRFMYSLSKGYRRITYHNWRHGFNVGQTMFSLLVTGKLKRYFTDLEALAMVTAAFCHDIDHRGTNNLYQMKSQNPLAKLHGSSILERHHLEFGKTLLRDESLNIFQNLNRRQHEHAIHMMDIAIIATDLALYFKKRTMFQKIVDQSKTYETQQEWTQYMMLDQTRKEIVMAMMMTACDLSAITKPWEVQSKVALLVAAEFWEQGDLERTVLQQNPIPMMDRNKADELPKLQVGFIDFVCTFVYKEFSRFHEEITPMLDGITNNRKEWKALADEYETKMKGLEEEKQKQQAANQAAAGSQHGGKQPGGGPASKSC
T1 sequence (P23439 2-850 limits assumed): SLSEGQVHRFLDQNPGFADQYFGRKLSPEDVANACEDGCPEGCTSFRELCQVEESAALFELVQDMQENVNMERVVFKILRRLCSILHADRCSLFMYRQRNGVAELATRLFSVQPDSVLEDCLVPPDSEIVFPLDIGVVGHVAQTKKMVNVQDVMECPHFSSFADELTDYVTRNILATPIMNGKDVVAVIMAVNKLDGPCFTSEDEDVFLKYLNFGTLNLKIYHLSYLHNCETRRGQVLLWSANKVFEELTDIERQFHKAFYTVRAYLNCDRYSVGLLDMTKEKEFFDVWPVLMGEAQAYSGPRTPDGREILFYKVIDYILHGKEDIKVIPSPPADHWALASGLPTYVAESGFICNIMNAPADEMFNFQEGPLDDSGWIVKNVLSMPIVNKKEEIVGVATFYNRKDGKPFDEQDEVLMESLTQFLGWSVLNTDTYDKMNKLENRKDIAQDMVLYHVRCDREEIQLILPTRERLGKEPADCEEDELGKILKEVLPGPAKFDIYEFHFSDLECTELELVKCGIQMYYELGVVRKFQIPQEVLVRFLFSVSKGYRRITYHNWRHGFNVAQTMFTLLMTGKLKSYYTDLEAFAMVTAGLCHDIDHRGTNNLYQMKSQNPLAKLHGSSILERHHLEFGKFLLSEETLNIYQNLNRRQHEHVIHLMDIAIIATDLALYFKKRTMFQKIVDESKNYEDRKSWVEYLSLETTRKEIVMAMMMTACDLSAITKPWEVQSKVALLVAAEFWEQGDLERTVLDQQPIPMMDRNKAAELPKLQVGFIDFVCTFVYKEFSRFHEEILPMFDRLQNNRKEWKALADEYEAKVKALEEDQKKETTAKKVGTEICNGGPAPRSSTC

[10] = T1/2 in rat liver microsomes; format: in vitro ADME
[11] = test system: PDE-1; test: PDE-1 inhibition; format: biochemical
[12] = Chronic Cytoxicity (mouse 3T3); format: cell-based; details: 3T3 cells
[13] = PAMPA permeability; format: in vitro ADME; details: Hex, read-out: PAMPA Hex
[14] = pH 2.7, aqueous buffer, read-out: Solubility (ug/mL) pH 2.7
[15] = pH 7.4, aqueous buffer, read-out: Solubility (ug/mL) pH 7.4

SMILES	solubility [1, 14] [µg/mL]	solubility [1, 15] [µg/mL]	pIC50 [2]	Non-Spec Binding (%) [3] [%]	half-life [4] [min]	fraction unbound [5]	pIC50 [6]	pIC50 [7]	Papp A→B [8] [×10⁻⁶ cm/s]	Papp B→A [8] [×10⁻⁶ cm/s]	pIC50 [9]	half-life [10] [min]	pIC50 [11]	GI50 [12] [nM]	LC50 (50% lethal concentration) [12] [nM]	Papp [13] [×10⁻⁶ cm/s]
CCCc1nc(C)c2c(=O)[nH]c(-c3cc(S(=O)(=O)N4CCN(CCN5CCOCC5)CC4)ccc3OCC)nn12 [Compound 15]	115 (≈ 200 µM)	110 (≈ 192 µM)	9.80	8.78	30.8	0.155	5.43	5.65	8.45	40.6	8.96	34	7.33	–	–	–
CCCc1nn(C)c2c(=O)[nH]c(-c3cc(S(=O)(=O)N4CCN(CCN5CCOCC5)CC4)ccc3OCC)nc12 [Compound 21]	112 (≈ 194 µM)	26 (≈ 45.3 µM)	8.82	68.4	47	0.071	5.43	5.02	–	–	7.92	34	7.12	–	–	–
CCCc1nc(C)c2c(=O)[nH]c(-c3cc(S(=O)(=O)N(CC)CCOC)ccc3OCC)nn12 [Compound 9]	–	–	9.95	35.85	9.83	0.01	5.95	6.16	55.1	60.9	9.02	9.8	7.89	87300	> 100000	133
CCCc1nc(C)c2c(=O)[nH]c(-c3cc(S(=O)(=O)N4CCN(C(=O)CN(C)C)CC4)ccc3OCC)nn12 [Compound 1]	124 (≈ 228 µM)	111 (≈ 204 µM)	9.85	–	34	–	–	–	–	–	8.36	45.4	7.02	–	–	~1.06
CCCc1nc(C)c2c(=O)[nH]c(-c3cc(S(=O)(=O)N4CCN(C(=O)C5CCCO5)CC4)ccc3OCC)nn12 (stereo not shown) [Compound 19]	–	–	10.25	15.5	22.4	0.104	6.16	5.92	7.86	44.8	9.16	24	8.59	–	–	–
CCCc1nc(C)c2c(=O)[nH]c(-c3cc(S(=O)(=O)N4CCN(CC(=O)NC(C)C)CC4)ccc3OCC)nn12 [Compound 18]	–	–	10.43	22.15	44.1	0.0945	5.89	6.29	4.11	46.3	9.19	33	7.80	–	–	–
CCCc1nc(C)c2c(=O)[nH]c(-c3cc(S(=O)(=O)N4CCN(CC(=O)N(C)C)CC4)ccc3OCC)nn12 [Compound 16]	–	–	10.40	9.72	> 60	0.11	6.02	6.03	2.65	45.4	9.44	59.9	7.77	–	–	–
